Reference: ChEMBL document CHEMBL3044920, “Progress in understanding molecular mechanisms and evolution of resistance to succinate dehydrogenase inhibiting (SDHI) fungicides in phytopathogenic fungi” (Crop Prot, 2010)

Key:
Alternaria alternata [1] = experiment: Antifungal activity against wild type Alternaria alternata assessed as inhibition of mycelial growth at 10 ppm relative to untreated control; type: functional
Botrytis cinerea = experiment: Antifungal activity against resistant Botryotinia fuckeliana isolates obtained from excessive treatment with Signum; type: functional, organism-based
Alternaria alternata [2] = experiment: Antifungal activity against boscalid-resistant Alternaria alternata expressing AaSDHC H134R mutant assessed as inhibition of mycelial growth at 10 ppm relative to untreated control; type: functional
Alternaria alternata [3] = experiment: Antifungal activity against boscalid-resistant Alternaria alternata isolate Aa111 expressing AaSDHB H277Y mutant; type: functional, organism-based
Alternaria alternata [4] = experiment: Antifungal activity against boscalid-resistant Alternaria alternata expressing AaSDHB H277Y mutant assessed as inhibition of mycelial growth at 10 ppm relative to untreated control; type: functional
Alternaria alternata [5] = experiment: Antifungal activity against boscalid-resistant Alternaria alternata isolate Aa29 expressing AaSDHB H277Y mutant; type: functional, organism-based
Alternaria alternata [6] = experiment: Antifungal activity against boscalid-resistant Alternaria alternata expressing AaSDHD H133R mutant assessed as inhibition of mycelial growth at 10 ppm relative to untreated control; type: functional
Alternaria alternata [7] = experiment: Antifungal activity against wild type Alternaria alternata isolate Aa16; type: functional, organism-based
Alternaria alternata [8] = experiment: Antifungal activity against boscalid-resistant Alternaria alternata isolate Aa122 expressing AaSDHC H134R mutant; type: functional, organism-based

| SMILES | inhibition at 10 ppm (Alternaria alternata [1]) | EC50 (Botrytis cinerea) | inhibition at 10 ppm (Alternaria alternata [2]) | EC50 (Alternaria alternata [3]) | inhibition at 10 ppm (Alternaria alternata [4]) | EC50 (Alternaria alternata [5]) | inhibition at 10 ppm (Alternaria alternata [6]) | EC50 (Alternaria alternata [7]) | EC50 (Alternaria alternata [8]) |
| --- | --- | --- | --- | --- | --- | --- | --- | --- | --- |
| O=C(Nc1ccccc1-c1ccc(Cl)cc1)c1cccnc1Cl [BOSCALID] | 87.2% | > 100 ppm | 31.9% | > 50 ppm | 30.7% | > 50 ppm | 47.5% | 0.5 ppm | > 50 ppm |
| O=C(NCCc1ncc(C(F)(F)F)cc1Cl)c1ccccc1C(F)(F)F [FLUOPYRAM] | 83% | – | 11.3% | 0.25 ppm | 41.3% | 0.25 ppm | 16.9% | < 0.25 ppm | 5 ppm |
| CC(C)CC(C)c1sccc1NC(=O)c1cn(C)nc1C(F)(F)F (racemic) [PENTHIOPYRAD] | 89.7% | – | 85.1% | – | 90.5% | – | 88.7% | – | – |
